According to patent US8461328B2, “Tricyclic heterocyclic compounds, compositions and methods of use thereof” (Genentech, Inc., priority 2010, dated 2013):
Counter-ions that a name gives are not always drawn.

Tests used:
Assay type in all cases: biochemical
TYK2 = target: T1, TYK2 (Homo sapiens, UniProt P29597); assay: TYK2 inhibition (Table 4)
T1 construct: made in house; host or cells: SF9 insect cells (baculovirus)
T1 sequence (P29597 873-1187): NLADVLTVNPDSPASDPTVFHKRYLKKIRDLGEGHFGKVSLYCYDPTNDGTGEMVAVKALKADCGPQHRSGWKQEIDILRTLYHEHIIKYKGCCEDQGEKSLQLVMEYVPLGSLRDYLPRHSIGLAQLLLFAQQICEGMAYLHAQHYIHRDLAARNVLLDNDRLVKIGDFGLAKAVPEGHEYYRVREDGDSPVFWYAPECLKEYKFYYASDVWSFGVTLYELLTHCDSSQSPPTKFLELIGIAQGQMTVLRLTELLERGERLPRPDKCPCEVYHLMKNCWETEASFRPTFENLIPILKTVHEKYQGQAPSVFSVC

JAK1 = target: T2, JAK1 (Homo sapiens, UniProt P23458); assay: JAK1 inhibition (Table 4); conditions: read-out: JAK1 Ki
T2 construct: made in house; host or cells: SF9 insect cells (baculovirus)

JAK3 = target: T3, JAK3 (Homo sapiens, UniProt P52333); assay: JAK3 inhibition (Table 4); conditions: read-out: JAK3 Ki
T3 construct: made in house; host or cells: SF9 insect cells (baculovirus)

JAK2 = target: T4, JAK2 (Homo sapiens, UniProt O60674); assay: JAK2 inhibition (Table 4); conditions: read-out: JAK2 Ki
T4 construct: made in house; host or cells: SF9 insect cells (baculovirus)
T4 sequence (O60674 812-1132): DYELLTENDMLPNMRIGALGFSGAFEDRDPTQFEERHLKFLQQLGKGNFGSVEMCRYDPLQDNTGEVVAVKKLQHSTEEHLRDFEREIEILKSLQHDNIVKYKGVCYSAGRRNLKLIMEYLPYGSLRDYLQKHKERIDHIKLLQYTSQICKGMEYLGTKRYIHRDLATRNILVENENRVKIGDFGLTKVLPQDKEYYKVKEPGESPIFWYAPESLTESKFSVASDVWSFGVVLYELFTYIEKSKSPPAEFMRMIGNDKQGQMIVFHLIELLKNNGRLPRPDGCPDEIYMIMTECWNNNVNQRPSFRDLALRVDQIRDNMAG

T2 sequence (P23458 852-1154): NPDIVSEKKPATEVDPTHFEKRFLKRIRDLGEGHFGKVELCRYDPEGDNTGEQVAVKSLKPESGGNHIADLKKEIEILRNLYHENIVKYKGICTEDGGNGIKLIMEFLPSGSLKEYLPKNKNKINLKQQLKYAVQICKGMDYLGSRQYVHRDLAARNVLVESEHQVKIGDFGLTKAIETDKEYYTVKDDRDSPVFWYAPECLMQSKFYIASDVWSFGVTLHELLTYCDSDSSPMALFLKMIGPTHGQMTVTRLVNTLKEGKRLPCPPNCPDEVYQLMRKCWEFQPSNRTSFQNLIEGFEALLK
T3 sequence (P52333 783-1124): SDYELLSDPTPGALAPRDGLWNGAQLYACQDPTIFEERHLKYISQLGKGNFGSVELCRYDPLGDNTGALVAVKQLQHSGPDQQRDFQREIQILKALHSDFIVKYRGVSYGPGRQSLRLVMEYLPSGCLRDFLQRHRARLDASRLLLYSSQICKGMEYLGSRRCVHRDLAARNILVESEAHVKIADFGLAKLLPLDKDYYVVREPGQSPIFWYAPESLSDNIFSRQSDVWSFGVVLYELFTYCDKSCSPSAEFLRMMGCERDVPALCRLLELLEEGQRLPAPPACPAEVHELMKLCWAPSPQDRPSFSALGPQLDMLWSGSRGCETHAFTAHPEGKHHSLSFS

Compound	Ki (TYK2) [nM]	Ki (JAK1) [nM]	Ki (JAK3) [nM]	Ki (JAK2) [nM]
c1ncc(CN2CCC[C@@H](n3cnc4cnc5[nH]ccc5c43)C2)cn1 [Example 42, 1-((R)-1-Pyrimidin-5-ylmethyl-piperidin-3-yl)-1,6-dihydro-1,3,5,6-tetraaza-as-indacene]	122	14.9	93	41
CN(C)CCC(=O)N1CCC(n2cnc3cnc4[nH]ccc4c32)CC1 [Example 439, 3-Dimethylamino-1-[4-(6H-1,3,5,6-tetraaza-as-indacen-1-yl)-piperidin-1-yl]-propan-1-one]	1980	84.2	1110	437
CC(C)(C)NCCOCc1nc2cnc3[nH]ccc3c2n1C1CCN(CCC#N)CC1 [Example 833, 3-{4-[2-(2-tert-Butylamino-ethoxymethyl)-6H-1,3,5,6-tetraaza-as-indacen-1-yl]-piperidin-1-yl}-propionitrile]	125	18.1	101	14
N#CCCN1CCC(n2nnc3cnc4[nH]ccc4c32)CC1 [Example 232, 3-[4-(6H-1,2,3,5,6-Pentaaza-as-indacen-1-yl)-piperidin-1-yl]-propionitrile]	19.3	2.03	53.4	3.35
Fc1cncc(CN2CCC(n3cnc4cnc5[nH]ccc5c43)CC2)c1 [Example 303, 1-[1-(5-Fluoro-pyridin-3-ylmethyl)-piperidin-4-yl]-1,6-dihydro-1,3,5,6-tetraaza-as-indacene]	61.2	2.07	14.6	3.53
OC1CCCC(n2nnc3cnc4[nH]ccc4c32)C1 (single isomer, unassigned) [Example 553, 3-(6H-1,2,3,5,6-Pentaaza-as-indacen-1-yl)-cyclohexanol]	33.5	8.59	42.5	20.4
C[C@H](O)c1nc2cnc3[nH]ccc3c2n1C1CCCOC1 (single isomer, unassigned) [Example 461]	1580	354	1180	1390
CC(=O)N[C@H]1CC[C@H](n2cnc3cnc4[nH]ccc4c32)CC1 [Example 106, Trans N-[4-(6H-1,3,5,6-tetraaza-as-indacen-1-yl)-cyclohexyl]acetamide]	35.6	5.5	43.6	10.8
CC(C)CS(=O)(=O)NCc1nc2cnc3[nH]ccc3c2n1C1CCN(CCC#N)CC1 [Example 506, 2-Methyl-propane-1-sulfonic acid {1-[1-(2-cyano-ethyl)-piperidin-4-yl]-1,6-dihydro-1,3,5,6-tetraaza-as-indacen-2-ylmethyl}-amide]	179	5.75	74	53.7
N#CCC1(N2CCC(n3cnc4cnc5[nH]ccc5c43)CC2)COC1 [Example 195, {3-[4-(6H-1,2,3,5,6-Tetraaza-as-indacen-1-yl)-piperidin-1-yl]-oxetan-3-yl}-acetonitrile]	2.16	0.66	27.6	1.13
Cc1nc2cnc3[nH]ccc3c2n1C1CCN(C(=O)NCCC(F)(F)F)CC1 [Example 765, 4-(2-Methyl-6H-1,3,5,6-tetraaza-as-indacen-1-yl)-piperidine-1-carboxylic acid (3,3,3-trifluoro-propyl)-amide]	2840	275	2210	872
N#CCCN1CCC(n2c(C(F)F)nc3cnc4[nH]ccc4c32)CC1 [Example 308, 3-[4-(2-Difluoromethyl-6H-1,3,5,6-tetraaza-as-indacen-1-yl)-piperidin-1-yl]-propionitrile]	12.3	1.5	6.04	2.63
CCC(C)S(=O)(=O)NCCc1nc2cnc3[nH]ccc3c2n1C1CCN(CCC#N)CC1 (racemic) [Example 369, Butane-2-sulfonic acid (2-{1-[1-(2-cyano-ethyl)-piperidin-4-yl]-1,6-dihydro-1,3,5,6-tetraaza-as-indacen-2-yl}-ethyl)-amide]	71.8	2.74	25.5	14.4
C[C@@H](O)c1nc2cnc3[nH]ccc3c2n1C1CCN(CCF)CC1 [Example 873, (R)-1-{1-[1-(2-Fluoro-ethyl)-piperidin-4-yl]-1,6-dihydro-1,3,5,6-tetraaza-as-indacen-2-yl}-ethanol]	422	20.7	72.7	124

Now from value to molecule:

Ki (TYK2) [nM]	Ki (JAK1) [nM]	Ki (JAK3) [nM]	Ki (JAK2) [nM]	Compound
292	4.17	17.7	11.9	CC1CN(Cc2ccccc2)CCC1n1cnc2cnc3[nH]ccc3c21 (racemic) [Example 150, Racemic trans 1-(1-Benzyl-3-methyl-piperidin-4-yl)-1,6-dihydro-1,2,3,5,6-tetraaza-as-indacene dihydrochloride]
127	2.5	4.53	4.53	FC(F)c1nc2cnc3[nH]ccc3c2n1C1CCN(Cc2ccccc2)CC1 [Example 299, 1-(1-Benzyl-piperidin-4-yl)-2-difluoromethyl-1,6-dihydro-1,3,5,6-tetraaza-as-indacene]
735	10.4	29.2	68.6	O=C1CCCN1Cc1nc2cnc3[nH]ccc3c2n1C1CCN(Cc2ccccc2)CC1 [Example 24, 1-[1-(1-Benzyl-piperidin-4-yl)-1,6-dihydro-1,2,3,5,6-tetraaza-as-indacen-2-ylmethyl]-pyrrolidin-2-one]
173	4.36	363	31.9	CC1(n2nnc3cnc4[nH]ccc4c32)CCN(S(C)(=O)=O)CC1 [Example 583, 1-(1-Methanesulfonyl-4-methyl-piperidine-4-yl)-1,6-dihydro-1,2,3,5,6-pentaaza-as-indacen-1-yl]
444	10.7	150	36.6	Cc1nc2cnc3[nH]ccc3c2n1C1CCC(NC(=O)N2CC(F)(F)C2)CC1 (stereo not shown) [Example 748, 3,3-difluoro-azetidine-1-carboxylic acid [4-(2-methyl-6H-1,3,5,6-tetraaza-as-indacen-1-yl)-cyclohexyl]-amide]
210	16	200	86.5	CC(=O)NCc1nc2cnc3[nH]ccc3c2n1C1CCN(CCC#N)CC1 [Example 492, N-{1-[1-(2-Cyano-ethyl)-piperidin-4-yl]-1,6-dihydro-1,3,5,6-tetraaza-as-indacen-2-ylmethyl}-acetamide]
1470	91.9	862	1540	c1cnn(Cc2nc3cnc4[nH]ccc4c3n2C2CCNCC2)c1 [Example 204, 1-Piperidin-4-yl-2-pyrazol-1-ylmethyl-1,6-dihydro-1,2,3,5,6-tetraaza-as-indacene]
56.7	4.26	97.8	10.9	c1cnc(N2CCC(n3cnc4cnc5[nH]ccc5c43)CC2)cn1 [Example 72, 1-(1-Pyrazin-2-yl-piperidin-4-yl]-1,6-dihydro-1,3,5,6-tetraaza-as-indacene]
